Experimental data from patent US12606528B2, “Methods and materials for inhibiting NF-kB activity” (University of Pittsburgh - Of the Commonwealth System of …, priority 2019, dated 2026).
pIC50: −log10 of the molar value. Like-named read-outs stand apart in the source and are kept apart here.

Columns and labels:
TNF release = test: TNF assay: TNF release from LPS-stimulated human PBMCs (TNF ELISA); type: cell-based; conditions: PBMC, read-out: IC50 (TNF assay)
Outline: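 Human PBMCs at 10k/well pretreated with compound dilutions 2 h, then stimulated with LPS (10 ng/mL) for 18 h. TNF in supernatants quantified by ELISA; IC50 for inhibition of TNF release fitted from concentration–response.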

NF-κB = NF-κB assay: THP1-NF-κB-LUC cells, LPS-stimulated secreted luciferase; type: cell-based; conditions: THP1-NF-κB-LUC cells, read-out: IC50 (NF-κB assay)
Outline: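 THP1-NF-κB-LUC cells (25k/well) were pretreated with compounds for 2 h, then stimulated with LPS (10 ng/mL) for 18 h. Secreted luciferase was measured and normalized to vehicle, and IC50 was fitted from the concentration series.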

[1] = human PBMCs, compounds 2 hours before LPS (10 ng/ml) for 18 hours, supernatant TNF ELISA
[2] = compounds 2 hours before LPS (10 ng/mL) for 18 hours, secreted luciferase
[3] = LPS-stimulated human PBMCs, TNF ELISA

Row | SMILES | pIC50 (TNF release; [1]) | pIC50 (NF-κB; [2]) | pIC50 (TNF release; [3]) | pIC50 (NF-κB; LPS-stimulated)
1 | CCc1ccc(NS(=O)(=O)c2cc3c(cc2Br)NC(=O)C(C)O3)cc1 (stereo not drawn) [BC19216] | < 5.00 | > 7.00 |  | 
2 | CC1Oc2cc(S(=O)(=O)N3CCOCC3)c(Br)cc2NC1=O (stereo not drawn) [BC19217] | < 5.00 | < 5.00 |  | 
3 | CC(C)CNS(=O)(=O)c1cc2c(cc1Br)NC(=O)C(C)O2 (stereo not drawn) [BC19218] | < 5.00 | < 5.00 |  | 
4 | CC1Oc2cc(S(=O)(=O)N3CCN(C)CC3)c(Br)cc2NC1=O (stereo not drawn) [BC19219] | < 5.00 | < 5.00 |  | 
5 | CCC1Oc2cc(S(=O)(=O)Nc3cccc(F)c3)c(Br)cc2NC1=O (stereo not drawn) [BC19220] | < 5.00 | 6.00 to 7.00 |  | 
6 | CCC1Oc2cc(S(=O)(=O)Nc3cccc(Cl)c3)c(Br)cc2NC1=O (stereo not drawn) [BC19221] | < 5.00 | 6.00 to 7.00 |  | 
7 | CCCNS(=O)(=O)c1cc2c(cc1Br)NC(=O)C(CC)O2 (stereo not drawn) [BC19222] | < 5.00 | < 5.00 |  | 
8 | CCC1Oc2cc(S(=O)(=O)NC3CCCCC3)c(Br)cc2NC1=O (stereo not drawn) [BC19223] | < 5.00 | < 5.00 |  | 
9 | CCC1Oc2cc(S(=O)(=O)Nc3ccc(C)cc3)c(Br)cc2NC1=O (stereo not drawn) [BC19224] | < 5.00 | 6.00 to 7.00 |  | 
10 | Cc1ccc(NS(=O)(=O)c2cc(Br)cc3c2OC(C)C(=O)N3)cc1Cl (stereo not drawn) [BC19225] | < 5.00 | 6.00 to 7.00 |  | 
11 | CC1Oc2c(cc(Br)cc2S(=O)(=O)N2CCOCC2)NC1=O (stereo not drawn) [BC19226] | < 5.00 | 5.00 to 6.00 |  | 
12 | CC(C)CNS(=O)(=O)c1cc(Br)cc2c1OC(C)C(=O)N2 (stereo not drawn) [BC19227] | < 5.00 | < 5.00 |  | 
13 | CC1Oc2c(cc(Br)cc2S(=O)(=O)N2CCN(C)CC2)NC1=O (stereo not drawn) [BC19228] | < 5.00 | < 5.00 |  | 
14 | CCCNS(=O)(=O)c1cc(Br)cc2c1OC(CC)C(=O)N2 (stereo not drawn) [BC19229] | < 5.00 | 5.00 to 6.00 |  | 
15 | CCC1Oc2c(cc(Br)cc2S(=O)(=O)NCc2ccccc2)NC1=O (stereo not drawn) [BC19230] | < 5.00 | > 7.00 |  | 
16 | CCC1Oc2c(cc(Br)cc2S(=O)(=O)Nc2cccc(F)c2)NC1=O (stereo not drawn) [BC19231] | < 5.00 | > 7.00 |  | 
17 | CCC1Oc2c(cc(Br)cc2S(=O)(=O)Nc2cccc(Cl)c2)NC1=O (stereo not drawn) [BC19232] | < 5.00 | > 7.00 |  | 
18 | CCC1Oc2c(cc(Br)cc2S(=O)(=O)NC2CCCCC2)NC1=O (stereo not drawn) [BC19233] | 5.00 to 6.00 | 5.00 to 6.00 |  | 
19 | CCC1Oc2c(cc(Br)cc2S(=O)(=O)Nc2ccc(C)cc2)NC1=O (stereo not drawn) [BC19234] | 5.00 to 6.00 | > 7.00 |  | 
20 | CC1Nc2cc(S(=O)(=O)N3CCCC3)ccc2NC1=O (stereo not drawn) [BC19235] |  |  | < 5.00 | < 5.00
21 | CNC(=O)N1c2cc(S(=O)(=O)N3CCCC3)ccc2NC(=O)C1C (stereo not drawn) [BC19236] |  |  | < 5.00 | < 5.00
22 | O=C(NCCN1CCOCC1)c1ccc2nc(-c3ccc(F)cc3)c(-c3ccc(F)cc3)nc2c1 [BC19237] |  |  | < 5.00 | > 7.00
23 | Fc1ccc(-c2nc3ccc(-c4nnnn4CCN4CCOCC4)cc3nc2-c2ccc(F)cc2)cc1 [BC19238] |  |  | < 5.00 | > 7.00
24 | O=C(Nc1ccc2nc(-c3ccc(F)cc3)c(-c3ccc(F)cc3)nc2c1)OCC(F)(F)F [BC19239] |  |  | < 5.00 | 6.00 to 7.00
25 | Fc1ccc(-c2nc3ccc(-c4cn(CCN5CCOCC5)nn4)cc3nc2-c2ccc(F)cc2)cc1 [BC19240] |  |  | < 5.00 | > 7.00
26 | Cc1nc(C)c(-c2ccc3nc(-c4ccc(F)cc4)c(-c4ccc(F)cc4)nc3c2)s1 [BC19241] |  |  | < 5.00 | 5.00 to 6.00
27 | Fc1ccc(-c2nc3ccc(-c4cccnc4)cc3nc2-c2ccc(F)cc2)cc1 [BC19242] |  |  | < 5.00 | 6.00 to 7.00
28 | CS(=O)(=O)c1cncc(-c2ccc3nc(-c4ccc(F)cc4)c(-c4ccc(F)cc4)nc3c2)c1 [BC19243] |  |  | < 5.00 | 6.00 to 7.00
29 | CN1CCOc2cc(-c3ccc4nc(-c5ccc(F)cc5)c(-c5ccc(F)cc5)nc4c3)ccc21 [BC19244] |  |  | < 5.00 | < 5.00
30 | Fc1ccc(-c2nc3ccc(-c4ccncc4)cc3nc2-c2ccc(F)cc2)cc1 [BC19245] |  |  | < 5.00 | 5.00 to 6.00
